A short description of data set [1]: Water content after storing in relative humidity of 92% at 25° C. The class given is physicochemical. Particulars: 92% relative humidity, Mod. III value depending on particle size. The protocol: |Water content (%) after storing in relative humidity |of 92% at 25° C. on particle size
Data set [2] in a line: Dissolution testing of capsules containing 150 mg torasemide in water. The data set is classed as physicochemical. The conditions noted are these: for % dissolved: 500 ml, 37° C., 150 rpm, 150 mg capsule. The protocol:
FIG. 4 is a plot similar to that of FIG. 3, but in water rather than citrate buffer; FIG. 6 is a plot similar to that of FIG. 5, but in water. In this and the following examples, microfine torasemide of modification I and microfine torasemide of modification III were blended together. A blend was prepared of 75 wt. % of modification III and 25 wt. % of modification I, and a similar blend was prepared of 25 wt. % of modification III and 75 wt. % of modification I. These blends were incorporated into capsules containing 150 mg of total torasemide, and pure modification I and pure modification III 150 mg. capsules were also prepared. The capsules were subjected to dissolution testing in water, and in a citrate buffer (pH 4.5), at 37° C. under stirring.

The conditions of data set [3]: earlier patents/knowledge, storage of pure active material or in tablets, cited from earlier work.
Data set [4] in a line: Solubility at 20° C. at pH 4.90. The data set is classed as physicochemical. The protocol: Solubility (mmol L^-1) at 20° C. at pH 4.90
Data set [5] is described as follows: Heats of fusion, transition and solution of crystal forms. The data set is classed as physicochemical. The conditions noted are these: for Heat of fusion ± 95%-c.i.: heating rate 5K min^-1; for Heat of solution: in I-butanol at 20° C.
Data set [6] in a line: Dissolution testing of capsules containing 150 mg torasemide in citrate buffer (pH 4.5). The data set is classed as physicochemical. The conditions noted are these: for % dissolved: citrate buffer pH 4.5, 500 ml, 37° C., 150 rpm, 150 mg capsule; for 8 hr solubility, %: citrate, pH 4.5, 8 hr. The protocol:
A blend was prepared of 75 wt. % of modification III and 25 wt. % of modification I, and a similar blend was prepared of 25 wt. % of modification III and 75 wt. % of modification I. These blends were incorporated into capsules containing 150 mg of total torasemide, and pure modification I and pure modification III 150 mg. capsules were also prepared. The capsules were subjected to dissolution testing in water, and in a citrate buffer (pH 4.5), at 37° C. under stirring.

Data set [7] in a line: Stability / rearrangement of crystal modification. The data set is classed as physicochemical.
Data set [8] in a line: Serum concentration of torasemide after oral administration to rats. The data set is classed as in vivo, rat. The conditions noted are these: male rats (FIG. 1). The text has this: FIG. 1 is a plot of serum concentration levels in male rats of torasemide of modification I and modification III versus time after oral administration;
FIG. 2 is similar to FIG. 1, but reflects the serum concentrations in female rats;

A short description of data set [9]: Solubility of modification III versus modification I above pH 3. The data set is classed as physicochemical. The conditions noted are these: above pH 3 and especially at a pH of approximately 7.4.
For data set [10] the following is noted: in vivo; cited from earlier work.
The test system of data set [11] is sodium-potassium-2 chloride transport mechanism in the ascending limb of the loop of Henle. Particulars: loop diuretic; cited from earlier work.

Structures are written as SMILES. ≈ marks a conversion by molar mass, not a printed value. Where “and” joins values, the source holds several entries; their conditions need not be identical. Equal entries are not always repeated. Entries after “also recorded” stand apart in the source; their conditions may differ. Where two headings read alike, the source gives them in different places.

Here are results for four compounds from patent US5914336A, “Method of controlling the serum solubility of orally administered torasemide and composition relating thereto” (Boehringer Mannheim GmbH, priority 1998, dated 1999).

As for `Cc1cccc(Nc2ccncc2S(=O)(=O)NC(=O)NC(C)C)c1` [Mod. I, 1-isopropyl-3-[(4-m-toluidino-3pyridyl)-sulphonyl)-urea], the “Water content after storing in relative humidity of 92% at 25° C.” value in [1] was found to be 0.2%. The “% dissolved” value in data set [2] (0 minutes) is 0%; in data set [2] (15 minutes), 30,6%; in data set [2] (30 minutes), 51,3%; in data set [2] (45 minutes), 58,5%; in data set [2] (60 minutes) it was 61,6%; in data set [2] (120 minutes), 64,9%. The “% dissolved” value in data set [2] (180 minutes) was 65,9%; in [2] (240 minutes), 66,3%; in data set [2] (300 minutes) it was 66,8%; in data set [2] (480 minutes), 67,3%; in data set [6] (0 minutes), 0%; in [6] (15 minutes) it was 13,4%. Besides, the “% dissolved” value in data set [6] (30 minutes) is reported as 30,3%; in data set [6] (45 minutes) it was 38,3%; in data set [6] (60 minutes) it was 43,5%; in [6] (120 minutes), 54,9%; in [6] (180 minutes), 61%; in data set [6] (240 minutes), 63,2%. Also, the “% dissolved” value in data set [6] (300 minutes) is recorded as 63,1%; in data set [6] (480 minutes) it was 63,9%. Also, the results for the “8 hr solubility, %” value in data set [2] (listed as Modification I) and in data set [6] (listed as Modification I) were 67.3% and 63.9%, respectively. For the same compound, the “stability / rearrangement of modification” value in data set [3] (listed as modification I) was “stable in tablets and did not rearrange again back into modification II”. The compound further had a Solubility in data set [4] of 340 µM (≈ 118 µg/mL). Also, the “Heat of fusion ± 95%-c.i.” value in [5] was 8.89 ± 0.454 kcal/mol. In data set [5], the Heat of solution is 8.63 kcal/mol.
Turning to `Cc1cccc(Nc2ccncc2S(=O)(=O)NC(=O)NC(C)C)c1` [Mod. III, 1-isopropyl-3-[(4-m-toluidino-3pyridyl)-sulphonyl)-urea], the “Water content after storing in relative humidity of 92% at 25° C.” value in data set [1] stood at 1.2%. Also, the stability of modification entry in data set [7] was “stable”. Besides, the “% dissolved” value in [2] (0 minutes) is 0%; in [2] (15 minutes), 62,8%; in data set [2] (30 minutes) it was 96,6%; in data set [2] (45 minutes), 100,4%; in data set [2] (60 minutes), 101,3%; in data set [2] (120 minutes) it was 102,1%. Also, the “% dissolved” value in data set [2] (180 minutes) was 102,5%; in [2] (240 minutes), 102,8%; in data set [2] (300 minutes), 102,2% and 103,2%; in [2] (480 minutes), 103,3%; in [6] (0 minutes) it was 0%; in [6] (15 minutes), 63,3%. For the same compound, the “% dissolved” value in [6] (30 minutes) is recorded as 91%; in data set [6] (45 minutes) it was 97,4%; in [6] (60 minutes) it was 99,5%; in data set [6] (120 minutes) it was 101%; in data set [6] (180 minutes), 101,5%; in [6] (240 minutes), 101,6%. In addition, the “% dissolved” value in data set [6] (300 minutes) is on record as 101,8%; in data set [6] (480 minutes), 102,5%. Moreover, the “8 hr solubility, %” value was 103.3% in [2] (listed as Modification III) and 102.5% in data set [6] (listed as Modification III). In [4], the Solubility turned out to be 930 µM (≈ 324 µg/mL). In addition, the “serum concentration relative to modification I” value in data set [8] (20 minutes after oral administration) is “more than twice the serum concentration as modification I”; in data set [8] (40 minutes after oral administration), “almost twice the serum concentration as modification I”. In addition, the “solubility versus modification I” value in data set [9] was “significantly greater solubility than modification I”. For the same compound, the “Heat of transition ± 95%-c.i.” value in data set [5] (at about 159° C., the difference of the heats of fusion) is -1.96 ± 0.502 kcal/mol. In addition, the “Heat of fusion ± 95%-c.i.” value in data set [5] was found to be 7.15 ± 0.22 kcal/mol. The Heat of solution in [5] turned out to be 7.12 kcal/mol.
In the case of `Cc1cccc(Nc2ccncc2S(=O)(=O)NC(=O)NC(C)C)c1` [Modification II, 1-isopropyl-3-[(4-m-toluidino-3pyridyl)-sulphonyl)-urea], in data set [3], the “stability / rearrangement of modification” value was “relatively unstable; also recorded: in the case of storage of the pure active material, does not change; also recorded: rearranges more or less quickly into modification I”.
Take `Cc1cccc(Nc2ccncc2S(=O)(=O)NC(=O)NC(C)C)c1` [Torasemide, 1-isopropyl-3-[(4-m-toluidino-3pyridyl)-sulphonyl)-urea]: the “diuresis compared with other standard loop diuretics” value in data set [10] was “less intense initial diuresis and a sustained duration of action”. Moreover, the mechanism of action entry in data set [11] is recorded as “blocks the sodium-potassium-2 chloride transport mechanism in the ascending limb of the loop of Henle”.
